The record followed here is ChEMBL document CHEMBL5512622, “Ecto-nucleotide pyrophosphatase/phosphodiesterase 1 inhibitors: Research progress and prospects” (Eur J Med Chem, 2024).

The target in series [1] is T1, Ectonucleotide pyrophosphatase/phosphodiesterase family member 1 (Homo sapiens, UniProt P22413).
T1 sequence (P22413 whole entry): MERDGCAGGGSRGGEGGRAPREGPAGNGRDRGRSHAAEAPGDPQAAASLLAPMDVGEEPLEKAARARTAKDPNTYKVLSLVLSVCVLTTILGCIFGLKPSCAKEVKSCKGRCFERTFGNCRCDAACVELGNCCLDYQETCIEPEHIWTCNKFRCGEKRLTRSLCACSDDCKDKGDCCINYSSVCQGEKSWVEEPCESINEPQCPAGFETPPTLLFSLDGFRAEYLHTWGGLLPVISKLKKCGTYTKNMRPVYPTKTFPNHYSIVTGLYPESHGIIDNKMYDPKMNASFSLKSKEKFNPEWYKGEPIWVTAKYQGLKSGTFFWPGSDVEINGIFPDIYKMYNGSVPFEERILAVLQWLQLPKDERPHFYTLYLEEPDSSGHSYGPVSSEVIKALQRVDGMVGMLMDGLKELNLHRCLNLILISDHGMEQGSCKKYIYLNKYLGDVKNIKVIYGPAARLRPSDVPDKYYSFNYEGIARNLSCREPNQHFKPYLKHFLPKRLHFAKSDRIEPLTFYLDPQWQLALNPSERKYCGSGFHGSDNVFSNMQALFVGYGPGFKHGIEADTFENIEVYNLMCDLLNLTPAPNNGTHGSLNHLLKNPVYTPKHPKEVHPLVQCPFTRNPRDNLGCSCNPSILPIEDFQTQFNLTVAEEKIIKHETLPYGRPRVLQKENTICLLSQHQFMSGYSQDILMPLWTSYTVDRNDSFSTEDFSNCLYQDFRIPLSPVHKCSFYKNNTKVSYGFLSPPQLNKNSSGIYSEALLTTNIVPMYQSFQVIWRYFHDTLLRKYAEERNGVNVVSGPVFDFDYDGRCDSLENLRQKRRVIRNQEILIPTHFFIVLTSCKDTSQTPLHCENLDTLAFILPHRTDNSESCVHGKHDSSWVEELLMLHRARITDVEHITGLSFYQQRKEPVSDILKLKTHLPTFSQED
In words: Inhibition of ENNP1 (unknown origin) using 2',3'-cGAMP as substrate preincubated with compound followed by substrate addition and measured after 60 mins by AMP-Glo reagent based assay.

The target of series [2] is T1, Ectonucleotide pyrophosphatase/phosphodiesterase family member 1. In words: Inhibition of recombinant human ENPP1 using ATP as substrate assessed as inhibition constant incubated for 30 mins by Lineweaver-Burk plot analysis.
Series [3] has the same target. In words: Inhibition of ENPP1 (unknown origin) using cGAMP as substrate assessed as inhibition constant at pH 7.4.
The target is the same in series [4]. In words: Inhibition of ENPP1 in HEK293 cells using 2',3'-cGAMP as substrate by AMP-Glo assay. It counts as cell-based.
The nature of series [5]: Cmax in CD-1 mouse at 50 mg/kg, po measured after 24 hrs by LC-MS/MS analysis. It counts as ADME, organism-based. The note with it: in vivo.
The nature of series [6]: AUClast in CD-1 mouse at 50 mg/kg, po measured after 24 hrs by LC-MS/MS analysis. The note with it: in vivo. In kind it is ADME, organism-based.
In series [7] the target is T2, Ectonucleotide pyrophosphatase/phosphodiesterase family member 1 (Mus musculus, UniProt P06802).
T2 sequence (P06802 whole entry): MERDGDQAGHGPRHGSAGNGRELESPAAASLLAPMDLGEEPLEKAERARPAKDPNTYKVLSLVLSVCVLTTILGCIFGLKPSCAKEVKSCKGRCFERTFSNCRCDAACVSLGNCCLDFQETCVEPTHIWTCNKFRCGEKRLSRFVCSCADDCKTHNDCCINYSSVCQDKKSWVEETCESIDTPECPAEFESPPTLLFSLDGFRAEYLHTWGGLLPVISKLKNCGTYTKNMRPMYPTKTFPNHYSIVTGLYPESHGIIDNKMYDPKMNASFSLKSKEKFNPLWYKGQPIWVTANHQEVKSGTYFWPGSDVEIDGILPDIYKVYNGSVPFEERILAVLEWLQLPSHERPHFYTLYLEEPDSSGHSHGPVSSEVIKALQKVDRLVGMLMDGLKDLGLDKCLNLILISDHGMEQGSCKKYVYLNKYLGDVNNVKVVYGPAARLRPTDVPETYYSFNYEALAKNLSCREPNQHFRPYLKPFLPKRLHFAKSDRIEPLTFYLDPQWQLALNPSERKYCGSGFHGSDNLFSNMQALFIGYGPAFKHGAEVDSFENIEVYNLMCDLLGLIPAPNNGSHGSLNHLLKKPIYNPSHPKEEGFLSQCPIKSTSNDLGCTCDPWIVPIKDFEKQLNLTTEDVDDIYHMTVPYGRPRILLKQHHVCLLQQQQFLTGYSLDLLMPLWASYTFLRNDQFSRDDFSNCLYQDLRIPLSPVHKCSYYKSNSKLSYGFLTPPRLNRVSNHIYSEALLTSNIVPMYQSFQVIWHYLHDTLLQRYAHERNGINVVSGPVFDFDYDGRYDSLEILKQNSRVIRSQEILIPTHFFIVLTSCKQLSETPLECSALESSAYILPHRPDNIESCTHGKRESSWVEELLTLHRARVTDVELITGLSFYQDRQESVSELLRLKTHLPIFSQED
In words: Inhibition of ENPP1 in mouse plasma using [32P]cGAMP as substrate. In kind it is cell-free.

The target of series [8] is T1, Ectonucleotide pyrophosphatase/phosphodiesterase family member 1. In words: Inhibition of human ENPP-1 using 2',3'-cGAMP as substrate preincubated for 15 mins followed by substrate addition and measured after 30 mins by AMP-Glo reagent based assay.
The target is the same in series [9]. In words: Inhibition of recombinant human ENPP-1 using AMP-pNP as substrate incubated for 20 mins by absorbance based plate reader analysis.
Series [10] has the same target. In words: Inhibition of ENPP1 (unknown origin) using TMP-pNP as substrate preincubated for 10 mins followed by substrate addition and measured immediately under pH 8.8 by absorbance based multimode plate reader analysis.
Series [11] has the same target. In words: Inhibition of recombinant human ENPP1 using p-NP-TMP as substrate incubated for 45 mins by absorbance based analysis.
For a further series, the system named is MDA-MB-231. In words: Antiproliferative activity against human MDA-MB-231 cells incubated for 48 hrs by CCK8 assay. Particulars: MDA-MB-231, 48 h.
Series [12] is described as follows: Half-life in ICR mouse at 5 mg/kg, po measured after 24 hrs by LC/MS/MS analysis. Particulars: in vivo. It counts as ADME, organism-based.
Series [13] is described as follows: Cmax in ICR mouse at 5 mg/kg, po measured after 24 hrs by LC/MS/MS analysis. In kind it is ADME, organism-based. Particulars: in vivo.
Series [14] is described as follows: AUC in ICR mouse at 5 mg/kg, po measured after 24 hrs by LC/MS/MS analysis. In kind it is ADME, organism-based. The note with it: in vivo.
In series [15] the target is T1, Ectonucleotide pyrophosphatase/phosphodiesterase family member 1. In words: Inhibition of recombinant human ENPP1 using 2',3'-cGAMP as substrate preincubated for 5 to 10 mins followed by substrate addition and measured after 90 mins by […] assay. Background: ADP-Glo turns the ADP formed in a reaction into a luminescent signal.
In series [16] the target is T3, Ectonucleotide pyrophosphatase/phosphodiesterase family member 1 (Homo sapiens) (UniProt P22413).
T3 sequence (whole entry): T1 sequence (P22413 whole entry)
In words: Binding affinity to recombinant human ENPP1 assessed as thermal stabilization by measuring change in melting temperature incubated for 5 mins by SYPRO orange dye based thermal shift assay.

As usually defined, the IC50 is the concentration needed to halve the response being measured. A word on the Ki: it is the dissociation constant of the complex between target and ligand, obtained from inhibition or displacement. In general, Cmax refers to the peak of the concentration-time curve. As usually defined, the AUC(0-t) is exposure summed from dosing to a finite time, without extrapolation to infinity. A high value points to more exposure. The term half-life denotes the time in which the quantity being followed falls by half. Broadly, the AUC is concentration integrated over time. Usually ΔTm stands for the change in melting temperature against a reference sample.

As for `COc1ncc2nc(C(F)(F)F)n(Cc3ncc(S(N)(=O)=O)cc3F)c2c1-c1ccccc1`, in series [1], the IC50 was < 1 nM.
On to `CSc1nc(N)c2ncn([C@@H]3O[C@H](COP(=O)(O)OP(=O)(O)OP(=O)(O)O)[C@@H](O)[C@H]3O)c2n1`, for which, in series [2], the Ki came to 5000 nM.
In the case of `COc1cccc2c(N3CCC(CC(CNC(=O)[C@@H](N)C(C)(C)C)P(=O)(O)O)CC3)ncnc12` (stereo partly specified), in series [3], the Ki is < 10 nM. For the same compound, the IC50 in [4] is < 10 nM. The compound also displayed a Cmax in series [5] of 1680 ng/mL. The compound also gave an AUC(0-t) at 24 h in [6] of 4130 ng·h/mL.
In the case of `COc1cccc2c(N3CCC(CCP(=O)(O)O)CC3)ncnc12`, the Ki was < 2 nM in series [3] and 4 nM in series [7]. This compound also displayed a Cmax in series [5] of 67.2 ng/mL. The AUC(0-t) at 24 h in series [6] is 344 ng·h/mL.
Take `Nc1ncnc2c1ncn2[C@@H]1O[C@H](COP(=O)(O)CP(=O)(O)O)[C@@H](O)[C@H]1O` [PHOSPHOMETHYLPHOSPHONIC ACID ADENOSYL ESTER]: the Ki in [2] amounted to 5000 nM.
Take `COc1cc2ncc3ncn(Cc4ccc(CS(N)(=O)=O)cn4)c3c2cc1OC`: the IC50 in series [8] and in series [9] was < 100 nM in each case.
Turning to `Nc1ncnc2c1ncn2[C@@H]1O[C@H](COP(=O)(O)OP(=O)(O)OP(=O)(O)O)[C@@H](OC(=O)c2ccc(C(=O)c3ccccc3)cc2)[C@H]1O`, in series [2], the Ki amounted to 5000 nM.
Consider `NC(=O)c1c[nH]c2c(NCc3ccc(B(O)O)cc3)ncnc12`, for which the Ki in series [10] was < 100 nM.
Consider `COc1ccc(NC(=O)CSc2nc(C(N)=O)c[nH]2)cc1OC`, for which the IC50 in [11] is < 200 nM.
Turning to `CSc1nc(N)c2ncn([C@@H]3O[C@H](COP(=O)(O)OP(=O)(O)O)[C@@H](O)[C@H]3O)c2n1`, in series [2], the Ki stood at 5000 nM.
As for `COc1ccc(NC(=O)CSc2nc(C(=O)O)c[nH]2)cc1Cl`, in series [11], the IC50 is < 200 nM.
Take `NC(=O)c1ccc2c(ncn2Cc2ccc(B(O)O)cc2)n1`: the IC50 in [10] is < 10 nM.
Regarding `Nc1ncnc2c1ncn2[C@@H](C=O)O[C@@H](C=O)COP(=O)(O)OP(=O)(O)OP(=O)(O)O`, in series [2], the inhibitory constant (Ki) is 5000 nM.
In the case of `COc1cccc2c(N3CCC(CCP(=O)(O)O)CC3)c(C#N)cnc12`, the Ki in series [3] is < 2 nM.
As for `NC(=O)c1c[nH]c2c(NCc3ccc(P(=O)(O)O)cc3)ncnc12`, the Ki in [10] is < 100 nM.
With `COc1ccc2[nH]c(SCc3nc4cc(F)ccc4c(=O)[nH]3)nc2c1`, the IC50 in the series on MDA-MB-231 was < 1000 nM.
With `COc1ccc(NC(=O)CSc2nc(C(=O)OCC(O)CO)c[nH]2)cc1OC` (stereo unspecified), the IC50 in series [11] is < 200 nM.
As for `COc1ccc2c(Oc3ccc(CC(=O)NO)cc3)ccnc2n1`, the half-life in series [12] is 3.26 h. In [13], this compound came in with a Cmax of 736 ng/mL. The AUC at 24 h in series [14] is 619 ng·h/mL.
Regarding `COc1ccc2c(c1)nnn2-c1ccc(CNS(N)(=O)=O)c(F)c1`, in [15], the IC50 was < 1000 nM.
On to `COc1ccc(NC(=O)CSc2nc3c(C)c(C#N)ncc3[nH]2)cc1O`, for which the ΔTm in series [16] was 1.11 °C.
`COc1cc2c(-c3ccc(CNS(N)(=O)=O)c(F)c3)n[nH]c(=O)c2cc1OC`: the IC50 in [15] is < 1000 nM.
With `Nc1ccc(F)c(-c2ccnc3c2CCC(=O)N3)c1`, the 50% inhibitory concentration (IC50) in series [15] was < 1000 nM.
